# Patent publication US11053608B2, “Combinatorial derivatives of RNA oligonucleotides” (priority 2017, dated 2021)
# Assays:
# skin wounds = experiment: Wound healing activity; assay type: in vivo, male Vistar white rats
# Procedure: The study of the wound healing properties of the compositions was carried out on male Vistar white rats. In 38 animals that were anesthetized with diethyl ether for 2-4 min., A 2 by 2 cm skin area was cut out on the dorsal side of the body, behind the right shoulder blade. The skin was taken with tweezers, it was pulled back, the skin fragment was cut 2 cm in size, wound depth 2 mm, the average area of the wound was 4±1.0 cm^2.
# The resulting wounds of a polygonal shape were intensively bleeding. Then the wounds of animals first and second groups (10 in each), D1 and D2 compositions were applied.
# The wounds of rats of the 3rd group were treated with Dexpanthenol (DP), the 4th group of 8 animals was the control group, the wounds of these animals were not treated. The compositions in contact with blood formed a gel form, it was covering entire surface of the wound and capture a small fragment of surrounding skin around the wound.
# The glue BF-6 was applied on top of the gel, dried and the animals were released into cells.
# The planimetric studies of the wounds were carried out from 1st day of experiment on the 3rd, 6th, 9th, 11th, and 13th days, which made it possible to judge the features of reparative processes.
# The measurement of the area of the wounds was carried out as follows: on the celluloid film which was covering the wound entirely, contours were applied, after which the area of the wound surface was determined using graph paper.
# [1] = Toxic dose LD50 and lethal dose LD100; assay type: in vivo
# Procedure: The compositions (MATR and Taxotere) were administered intraperitoneally three times with an interval of two hours in 0.5 ml. For MATR injection aqueous solution was used. The total doses of the compositions were 34.0, 68.0, 84.0, 102.0 and 136 mg/kg. The number of dead animals in each group was confirmed every 24-48 hours. The calculation of the toxic dose, LD50, was carried out according to the protocol. The lethal dose, […], was determined experimentally.
# HeLa-2 tumor cells = experiment: Minimum active dose and cytopathic effect in HeLa-2 cell culture; assay type: cell-based; conditions: minimum amount causing degeneration of 90-95% of the cells; medium 199; monitored 5 days
# Procedure: Determination of the anticancer activity of MATR in the cell culture was performed in a HeLa-2 cell culture. The different amount of MATR from 2 to 12 μg/ml of medium was added to medium 199. (see table 1). For the control a culture was without MATR. Cell cultures were monitored for 5 days with daily viewing. The minimum active dose (MAD) of MATR was considered to be its minimum amount, which caused degeneration of 90-95% of the cells (Table 2)
# Schwez leukemia = experiment: Antitumor activity on Shvets leukemia; assay type: in vivo, Outbred white rats; conditions: injected dose 9.1*3 = 27.3 mg/kg intraperitoneal
compound,measurement,setting,value
"CC(C)(CO)[C@@H](O)C(=O)NCCCO [DP, Dexpanthenol]",Wound Area (S) during the observation,skin wounds; 1-3 days,4.1 ± 1.0 cm2
same,Wound Area (S) during the observation,skin wounds; 3-6 days,3.2 ± 0.3 cm2
same,Wound Area (S) during the observation,skin wounds; 6-9 days,2.4 ± 0.3 cm2
same,Wound Area (S) during the observation,skin wounds; 9-11 days,1.0 ± 0.3 cm2
same,Wound Area (S) during the observation,skin wounds; 11-13 days,0.3 ± 0.1 cm2
CC(=O)O[C@@]12CO[C@@H]1C[C@H](O)[C@@]1(C)C(=O)[C@H](O)C3=C(C)[C@@H](OC(=O)[C@H](O)[C@@H](NC(=O)OC(C)(C)C)c4ccccc4)C[C@@](O)([C@@H](OC(=O)c4ccccc4)[C@H]21)C3(C)C [Taxotere],LD50,"[1]; in vivo, intraperitoneal",120 mg/kg
same,toxicity of the control compound (dose in brackets),[1]; intraperitoneally three times with an interval of two hours,120 mg/kg
same,MAD (minimum active dose),HeLa-2 tumor cells,10 µg/mL
same,Tumor volume,Schwez leukemia,0.73 cm3
